Source: patent US20100063080A1, “CXCR2 inhibitors” (priority 2006, published 2010)

Target: T1, human CXCR2 receptor (Homo sapiens, UniProt P25025)
T1 construct: purchased Biosignal Packard Inc; host or cells: CHO-K1 membranes
T1 sequence (P25025 1-360): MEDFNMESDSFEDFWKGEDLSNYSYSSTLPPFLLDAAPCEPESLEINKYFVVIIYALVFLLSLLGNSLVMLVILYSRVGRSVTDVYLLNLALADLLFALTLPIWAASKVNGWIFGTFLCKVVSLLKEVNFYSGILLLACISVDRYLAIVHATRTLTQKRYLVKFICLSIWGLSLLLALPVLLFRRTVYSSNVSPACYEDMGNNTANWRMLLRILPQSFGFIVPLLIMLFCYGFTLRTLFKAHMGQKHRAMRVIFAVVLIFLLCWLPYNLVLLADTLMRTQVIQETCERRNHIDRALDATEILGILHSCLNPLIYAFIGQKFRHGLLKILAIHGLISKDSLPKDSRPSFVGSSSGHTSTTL
Experiment: [35S]-GTPγS binding assay for human CXCR2 receptor using SPA technology
Assay type: biochemical
Details: CHO-K1 membranes expressing human CXCR2; 100 nM IL-8; read-out: IC50 in the [35S]-GPTγS binding assay
From the text: [^35S]-GTPγS Binding Assay for Human CXCR2 Receptor using SPA Technology
[^35S]-GTPγS (with specific activity 1082 Ci/mmol) and wheat germ agglutinin poly vinyl toluene scintillation proximity beads are purchased from Amersham Pharmacia Biotech. The Chinese hamster ovary cell (CHO-K1) membranes expressing human CXCR2 receptors are purchased from Biosignal Packard Inc. All other chemicals are of analytical grade. White non-binding surface 96 well Optiplate™ microplates are obtained from Packard. Recombinant human IL-8 is synthesised, cloned and expressed in Escherichia coli as described previously (Lindley I, et al., Proc. Natl. Acad. Sci., 1988, 85(23):9199). The assay is performed in duplicate in 96 well Optiplate™ microplate in a final volume of 250 μl per well. Compounds are diluted in DMSO (0.5% final concentration) and incubated in 20 mM HEPES buffer pH 7.4 containing 10 mM MgCl2, 100 mM NaCl, 1 mM EDTA plus 100 nM IL-8, 50 μM GDP and […] [^35S]GTPγS per well. SPA beads (1 mg/well final concentration) were pre-mixed with the membranes (10 μg/well final concentration) in assay buffer: 20 mM HEPES buffer pH 7.4 containing 10 mM MgCl2, 100 mM NaCl, 1 mM EDTA. […] The plate is centrifuged and read on Packard TopCount™ scintillation counter, program [^35S dpm] for 1 min/well. Data are expressed as the % response to 100 nM IL-8 minus basal.

Compound	IC50
CCC1CCCN1C(=O)C1CC1c1nc(SCc2cccc(F)c2F)nc(O)c1C#N (centres unmarked) [Example 43, 2-(2,3-Difluoro-benzylsulfanyl)-4-[2-(2-ethyl-pyrrolidine-1carbonyl)-cyclopropyl]-6-hydroxypyrimidine-5-carbonitrile]	230 nM
CCOC(=O)CNC(=O)[C@@H]1C[C@H]1c1nc(SCc2cccc(F)c2F)nc(O)c1C#N (relative stereo) [Example 49, Trans-({2-[5-Cyano-2-(2,3-difluoro-benzylsulfanyl)-6-hydroxy-pyrimidin-4-yl]-cyclopropanecarbonyl}-amino)-acetic acid ethyl ester]	820 nM
